From PMC10401708, “Enzymatic Hydroxylation of Aliphatic C–H Bonds by a Mn/Fe Cofactor” (Journal of the American Chemical Society, 2023)

What was measured:
AibH1H2 [1] = biological target: T1, AibH1H2 (Rhodococcus wratislaviensis, UniProt A0A402C2Q3); assay: GC-MS of silylated D-MeSer product; type: biochemical; conditions: preliminary estimate; O2, ascorbate as reductant, 1 equiv Fe(II) added to Mn-grown enzyme; 20 mM HEPES pH 8.0, 30 °C
T1 construct: gene Rhow_000803; recombinant, E. coli BL21(DE3), pET-Duet-AibH1H2 with GroEL/ES-TF; His6-tagged; (alpha-beta)2 heterotetramer; Mn-grown (MnAibH1H2), Fe(II) added; with 2-aminoisobutyric acid hydroxylase subunit AibH1 (amidohydrolase family protein)
T1 sequence (A0A402C2Q3 entry or part of it): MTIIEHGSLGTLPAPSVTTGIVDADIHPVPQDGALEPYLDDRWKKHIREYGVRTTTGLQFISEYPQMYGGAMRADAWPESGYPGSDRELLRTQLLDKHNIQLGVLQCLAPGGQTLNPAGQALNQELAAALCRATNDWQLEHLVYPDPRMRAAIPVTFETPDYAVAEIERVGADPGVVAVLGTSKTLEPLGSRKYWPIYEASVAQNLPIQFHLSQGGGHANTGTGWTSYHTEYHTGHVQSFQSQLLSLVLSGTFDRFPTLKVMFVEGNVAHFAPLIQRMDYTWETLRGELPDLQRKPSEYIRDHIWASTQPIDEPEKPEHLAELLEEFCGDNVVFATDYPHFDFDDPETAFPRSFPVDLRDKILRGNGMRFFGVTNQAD
T1 sequence (A0A402C2V4 entry or part of it, further chain): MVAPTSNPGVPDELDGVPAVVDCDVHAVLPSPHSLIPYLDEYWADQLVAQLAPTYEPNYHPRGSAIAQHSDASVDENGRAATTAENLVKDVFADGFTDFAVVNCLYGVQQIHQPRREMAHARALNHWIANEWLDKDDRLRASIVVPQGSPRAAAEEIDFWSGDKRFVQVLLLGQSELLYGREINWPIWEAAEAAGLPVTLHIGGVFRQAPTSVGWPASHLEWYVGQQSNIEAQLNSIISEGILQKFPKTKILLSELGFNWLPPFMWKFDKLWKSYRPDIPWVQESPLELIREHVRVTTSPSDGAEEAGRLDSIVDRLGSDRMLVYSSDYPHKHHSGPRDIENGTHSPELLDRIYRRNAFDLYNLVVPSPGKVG

AibH1H2 [2] = biological target: T2, AibH1H2 (Rhodococcus wratislaviensis, UniProt A0A402C2Q3, D342A); assay: enzymatic activity assay (GC-MS); type: biochemical; conditions: diminished activity although all metals are incorporated
T2 construct: gene Rhow_000803; recombinant, E. coli BL21(DE3), pET-Duet-AibH1H2 with GroEL/ES-TF; His6-tagged; (alpha-beta)2 heterotetramer; Mn-grown (MnAibH1H2), Fe(II) added; with 2-aminoisobutyric acid hydroxylase subunit AibH1 (amidohydrolase family protein)
T2 sequence (A0A402C2V4 entry or part of it, stated change not applied): as the sequence (A0A402C2V4 entry or part of it, further chain) above
T2 sequence (A0A402C2Q3 entry or part of it D342A): as the sequence (A0A402C2Q3 entry or part of it) above, with D342A counted along it

## CC(C)(N)C(=O)O [AIB, 2-aminoisobutyric acid]
AibH1H2 [1]
  Km: > 100 mM
AibH1H2 [2]
  enzymatic activity assay (GC-MS): upon substitution to alanine, results in protein with diminished enzymatic activity
